Three compounds from ChEMBL document CHEMBL1201862, “PubChem BioAssay data set” (2004) can be followed below.

Experiment [1] deals with T1, Leucine aminopeptidase (Plasmodium falciparum 3D7, UniProt Q8IL11).
T1 sequence (Q8IL11 whole entry): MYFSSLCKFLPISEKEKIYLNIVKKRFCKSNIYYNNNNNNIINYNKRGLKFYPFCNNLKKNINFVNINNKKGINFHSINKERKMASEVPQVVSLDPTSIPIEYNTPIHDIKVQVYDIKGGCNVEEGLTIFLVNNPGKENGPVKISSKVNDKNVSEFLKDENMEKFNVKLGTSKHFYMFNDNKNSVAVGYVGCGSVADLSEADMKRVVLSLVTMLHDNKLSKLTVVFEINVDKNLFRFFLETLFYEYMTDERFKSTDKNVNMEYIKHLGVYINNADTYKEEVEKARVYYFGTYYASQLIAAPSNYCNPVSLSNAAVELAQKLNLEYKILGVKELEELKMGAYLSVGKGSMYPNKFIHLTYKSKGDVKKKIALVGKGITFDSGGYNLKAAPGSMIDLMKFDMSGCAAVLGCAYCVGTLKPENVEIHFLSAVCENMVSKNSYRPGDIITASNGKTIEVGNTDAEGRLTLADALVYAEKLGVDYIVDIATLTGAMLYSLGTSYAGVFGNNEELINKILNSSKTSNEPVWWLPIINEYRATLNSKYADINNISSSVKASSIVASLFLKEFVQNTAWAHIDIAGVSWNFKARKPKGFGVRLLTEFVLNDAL
The experiment in a line: P. falciparum M17LAP inhibitors, primary screen, biochemical, fluorogenic H-Leu-NHMec substrate, 1536-well (AID 1619). The experiment is classed as functional.

For experiment [2], the target named is Procathepsin L (Homo sapiens, UniProt P07711). The experiment in a line: CTSL1 protease inhibition – biochemical, QFRET, 1536-well, counter-screen for M1/M17 aminopeptidase inhibitor project, dose response (AID 2214).
Procathepsin L, sequence (P07711 whole entry): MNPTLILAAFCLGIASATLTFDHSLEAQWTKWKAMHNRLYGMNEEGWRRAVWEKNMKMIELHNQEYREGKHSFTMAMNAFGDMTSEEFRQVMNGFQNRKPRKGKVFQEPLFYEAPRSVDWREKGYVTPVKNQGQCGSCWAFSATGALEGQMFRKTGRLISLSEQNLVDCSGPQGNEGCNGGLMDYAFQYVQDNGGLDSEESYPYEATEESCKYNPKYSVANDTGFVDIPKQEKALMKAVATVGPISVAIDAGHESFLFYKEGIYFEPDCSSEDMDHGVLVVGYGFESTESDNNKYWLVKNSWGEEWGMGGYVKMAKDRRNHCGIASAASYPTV
Experiment [3] deals with T2, Aspartyl aminopeptidase (Plasmodium falciparum 3D7, UniProt Q8I2J3).
T2 sequence (Q8I2J3 whole entry): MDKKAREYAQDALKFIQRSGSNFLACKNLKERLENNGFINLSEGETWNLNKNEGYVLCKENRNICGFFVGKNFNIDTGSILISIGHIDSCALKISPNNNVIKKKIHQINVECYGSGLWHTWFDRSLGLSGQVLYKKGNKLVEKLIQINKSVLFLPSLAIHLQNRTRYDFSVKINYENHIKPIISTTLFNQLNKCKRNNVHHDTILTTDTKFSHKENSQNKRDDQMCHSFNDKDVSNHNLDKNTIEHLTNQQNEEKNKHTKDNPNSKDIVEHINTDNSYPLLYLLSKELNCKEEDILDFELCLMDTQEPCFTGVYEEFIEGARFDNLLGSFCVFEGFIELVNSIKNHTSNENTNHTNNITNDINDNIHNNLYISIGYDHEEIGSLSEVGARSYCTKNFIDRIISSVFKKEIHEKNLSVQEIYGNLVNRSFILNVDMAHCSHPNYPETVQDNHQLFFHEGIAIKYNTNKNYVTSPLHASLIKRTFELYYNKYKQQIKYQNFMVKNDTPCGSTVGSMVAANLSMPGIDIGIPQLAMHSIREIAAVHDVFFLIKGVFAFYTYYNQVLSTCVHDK
The experiment in a line: Counterscreen for inhibitors of M1 and M17 aminopeptidases: QFRET-based biochemical high throughput dose response assay for inhibitors of the Plasmodium falciparum M18 Aspartyl Aminopeptidase (PFM18AAP). [Related PubChem assays: 1619 (Screening assay (M17LAP inhibitors).), 1445 (Screening assay (M1AAP inhibitors).)]. A general note: Counterscreens check selectivity or assay interference.

Experiment [4] addresses Cytochrome P450 3A4 (Homo sapiens, UniProt P08684).
The target of experiment [5] is Cytochrome P450 2C19 (Homo sapiens, UniProt P33261). Put plainly: Cytochrome panel assay with activity outcomes. Panel member name: p450-cyp2c19 Compounds with AC50 equal or less than 10 uM are considered active. In kind it is functional. The following applies: read-out: AC50.
Cytochrome P450 2C19, sequence (P33261 whole entry): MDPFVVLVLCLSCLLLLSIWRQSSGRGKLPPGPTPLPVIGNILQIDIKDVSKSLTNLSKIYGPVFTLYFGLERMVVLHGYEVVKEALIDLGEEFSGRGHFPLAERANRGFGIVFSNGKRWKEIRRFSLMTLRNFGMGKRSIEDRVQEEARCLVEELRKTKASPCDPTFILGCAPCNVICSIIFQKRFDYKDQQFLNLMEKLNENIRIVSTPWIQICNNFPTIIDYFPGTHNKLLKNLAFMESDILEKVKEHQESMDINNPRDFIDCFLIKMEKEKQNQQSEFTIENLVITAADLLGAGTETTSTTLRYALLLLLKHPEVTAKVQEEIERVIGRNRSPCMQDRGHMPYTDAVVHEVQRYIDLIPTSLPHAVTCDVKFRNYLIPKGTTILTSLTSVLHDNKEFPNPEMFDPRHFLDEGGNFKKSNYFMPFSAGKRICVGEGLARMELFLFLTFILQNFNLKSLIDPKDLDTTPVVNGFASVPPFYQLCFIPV
In experiment [6] the target is Ras and Rab interactor 1/Tyrosine-protein kinase ABL1 (Homo sapiens, UniProt P00519+Q13671). The experiment is classed as functional.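 Note: biochemical TR-FRET dose-response test measuring inhibition of binding between Rin1 and Abl proteins.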
Ras and Rab interactor 1/Tyrosine-protein kinase ABL1, sequence (P00519 whole entry): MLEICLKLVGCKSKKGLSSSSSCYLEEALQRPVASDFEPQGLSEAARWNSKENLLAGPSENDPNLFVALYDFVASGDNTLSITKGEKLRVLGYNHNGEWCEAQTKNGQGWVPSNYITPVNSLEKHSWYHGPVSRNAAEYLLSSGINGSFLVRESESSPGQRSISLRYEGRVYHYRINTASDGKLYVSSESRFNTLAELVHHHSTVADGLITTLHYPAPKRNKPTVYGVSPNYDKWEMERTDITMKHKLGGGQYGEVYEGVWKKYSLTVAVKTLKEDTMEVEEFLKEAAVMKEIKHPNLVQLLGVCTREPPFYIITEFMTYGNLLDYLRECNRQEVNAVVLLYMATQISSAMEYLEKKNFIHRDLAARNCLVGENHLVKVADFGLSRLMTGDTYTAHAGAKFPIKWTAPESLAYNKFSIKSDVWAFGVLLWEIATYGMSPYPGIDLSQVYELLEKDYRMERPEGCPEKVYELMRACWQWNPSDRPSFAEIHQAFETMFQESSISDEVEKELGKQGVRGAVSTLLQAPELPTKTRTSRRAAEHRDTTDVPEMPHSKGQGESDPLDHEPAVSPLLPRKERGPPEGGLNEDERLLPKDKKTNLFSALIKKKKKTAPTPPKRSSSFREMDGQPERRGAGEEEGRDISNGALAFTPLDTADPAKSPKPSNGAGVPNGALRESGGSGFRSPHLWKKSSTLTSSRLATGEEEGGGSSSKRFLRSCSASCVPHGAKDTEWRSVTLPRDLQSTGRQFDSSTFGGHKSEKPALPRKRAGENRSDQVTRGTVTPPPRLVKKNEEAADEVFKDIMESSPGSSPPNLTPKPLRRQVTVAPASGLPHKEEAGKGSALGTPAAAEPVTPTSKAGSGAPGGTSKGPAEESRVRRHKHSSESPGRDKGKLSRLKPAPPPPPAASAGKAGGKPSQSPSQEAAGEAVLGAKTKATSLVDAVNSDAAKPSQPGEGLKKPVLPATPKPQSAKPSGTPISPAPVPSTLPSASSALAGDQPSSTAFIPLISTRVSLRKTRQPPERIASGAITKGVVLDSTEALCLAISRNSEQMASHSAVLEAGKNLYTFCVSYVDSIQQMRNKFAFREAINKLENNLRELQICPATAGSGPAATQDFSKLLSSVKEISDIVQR
Ras and Rab interactor 1/Tyrosine-protein kinase ABL1, sequence (Q13671 whole entry): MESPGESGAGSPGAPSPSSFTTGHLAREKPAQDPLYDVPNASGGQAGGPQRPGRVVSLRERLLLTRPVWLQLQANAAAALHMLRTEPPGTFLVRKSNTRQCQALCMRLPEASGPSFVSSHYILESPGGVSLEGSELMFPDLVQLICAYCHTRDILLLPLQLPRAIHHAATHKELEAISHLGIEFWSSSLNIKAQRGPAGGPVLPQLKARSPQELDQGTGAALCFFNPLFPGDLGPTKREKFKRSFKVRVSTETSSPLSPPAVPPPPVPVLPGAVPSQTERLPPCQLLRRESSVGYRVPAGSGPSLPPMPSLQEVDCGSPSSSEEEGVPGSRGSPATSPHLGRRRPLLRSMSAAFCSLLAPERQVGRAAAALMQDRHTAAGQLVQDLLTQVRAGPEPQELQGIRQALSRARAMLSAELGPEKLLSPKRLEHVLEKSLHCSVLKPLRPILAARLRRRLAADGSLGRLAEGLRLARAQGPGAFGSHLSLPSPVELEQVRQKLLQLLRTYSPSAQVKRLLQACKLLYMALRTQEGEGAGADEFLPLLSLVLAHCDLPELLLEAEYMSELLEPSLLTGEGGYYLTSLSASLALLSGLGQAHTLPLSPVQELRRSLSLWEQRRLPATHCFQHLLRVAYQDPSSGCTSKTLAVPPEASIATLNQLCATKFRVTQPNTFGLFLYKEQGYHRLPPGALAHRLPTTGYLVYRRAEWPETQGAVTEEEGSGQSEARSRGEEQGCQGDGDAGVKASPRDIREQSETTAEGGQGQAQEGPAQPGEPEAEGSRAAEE
The target of experiment [7] is T3, Apoptotic protease-activating factor 1 (Homo sapiens, UniProt O14727).
T3 sequence (O14727 whole entry): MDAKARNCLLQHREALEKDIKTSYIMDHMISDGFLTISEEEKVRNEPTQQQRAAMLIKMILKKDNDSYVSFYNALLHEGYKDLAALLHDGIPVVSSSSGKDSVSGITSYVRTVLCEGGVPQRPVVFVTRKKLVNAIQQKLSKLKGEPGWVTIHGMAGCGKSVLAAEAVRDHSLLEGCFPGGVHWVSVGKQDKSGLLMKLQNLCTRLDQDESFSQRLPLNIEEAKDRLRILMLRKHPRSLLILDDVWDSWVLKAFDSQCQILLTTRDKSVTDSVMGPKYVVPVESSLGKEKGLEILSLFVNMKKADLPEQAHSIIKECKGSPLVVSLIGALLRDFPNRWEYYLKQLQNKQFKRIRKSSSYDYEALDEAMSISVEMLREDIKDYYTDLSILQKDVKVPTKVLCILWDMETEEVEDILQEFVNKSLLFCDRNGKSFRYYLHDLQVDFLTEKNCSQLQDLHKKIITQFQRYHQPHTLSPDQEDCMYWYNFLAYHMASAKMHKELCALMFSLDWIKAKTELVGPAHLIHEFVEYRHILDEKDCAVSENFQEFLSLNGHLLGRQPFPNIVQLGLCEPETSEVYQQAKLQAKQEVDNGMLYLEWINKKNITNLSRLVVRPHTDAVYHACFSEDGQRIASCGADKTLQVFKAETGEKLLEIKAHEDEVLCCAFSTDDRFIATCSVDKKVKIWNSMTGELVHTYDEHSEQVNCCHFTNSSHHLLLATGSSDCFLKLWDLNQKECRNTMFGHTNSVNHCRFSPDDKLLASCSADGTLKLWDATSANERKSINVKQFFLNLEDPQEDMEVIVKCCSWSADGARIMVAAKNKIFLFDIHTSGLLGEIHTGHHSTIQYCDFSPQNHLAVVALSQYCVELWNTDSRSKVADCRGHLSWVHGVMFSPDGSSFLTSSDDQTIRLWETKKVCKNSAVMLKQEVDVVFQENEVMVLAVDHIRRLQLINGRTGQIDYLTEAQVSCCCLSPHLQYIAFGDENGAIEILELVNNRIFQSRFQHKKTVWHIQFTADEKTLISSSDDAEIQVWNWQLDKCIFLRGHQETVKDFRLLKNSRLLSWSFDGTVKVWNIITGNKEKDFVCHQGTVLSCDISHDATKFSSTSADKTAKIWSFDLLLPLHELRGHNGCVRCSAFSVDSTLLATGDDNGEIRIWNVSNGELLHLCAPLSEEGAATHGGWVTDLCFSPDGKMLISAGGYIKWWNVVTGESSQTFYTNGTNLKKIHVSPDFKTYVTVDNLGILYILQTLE
The experiment is classed as functional.

Experiment [8] addresses T4, Serine/threonine-protein phosphatase (Homo sapiens, UniProt Q9BPW0).
T4 sequence (Q9BPW0 whole entry): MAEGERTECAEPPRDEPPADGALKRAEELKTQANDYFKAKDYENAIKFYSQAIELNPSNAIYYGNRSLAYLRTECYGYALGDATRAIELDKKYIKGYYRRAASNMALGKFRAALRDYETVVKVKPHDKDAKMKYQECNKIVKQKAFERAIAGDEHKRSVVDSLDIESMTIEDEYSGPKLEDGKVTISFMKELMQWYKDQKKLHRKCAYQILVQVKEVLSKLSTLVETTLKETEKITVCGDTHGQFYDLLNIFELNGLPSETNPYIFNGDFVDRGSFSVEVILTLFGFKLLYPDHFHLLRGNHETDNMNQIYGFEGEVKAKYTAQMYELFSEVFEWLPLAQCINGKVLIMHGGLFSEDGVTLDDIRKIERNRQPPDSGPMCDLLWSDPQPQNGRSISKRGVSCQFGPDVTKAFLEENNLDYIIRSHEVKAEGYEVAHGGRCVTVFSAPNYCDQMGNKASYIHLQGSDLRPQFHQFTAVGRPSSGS
The experiment in a line: inhibition of protein phosphatase 5 activity – biochemical, fluorescence, dose response (AID 2395).

The target of experiment [9] is T5, Histone-lysine N-methyltransferase NSD2 (Homo sapiens, UniProt O96028).
T5 sequence (O96028 whole entry): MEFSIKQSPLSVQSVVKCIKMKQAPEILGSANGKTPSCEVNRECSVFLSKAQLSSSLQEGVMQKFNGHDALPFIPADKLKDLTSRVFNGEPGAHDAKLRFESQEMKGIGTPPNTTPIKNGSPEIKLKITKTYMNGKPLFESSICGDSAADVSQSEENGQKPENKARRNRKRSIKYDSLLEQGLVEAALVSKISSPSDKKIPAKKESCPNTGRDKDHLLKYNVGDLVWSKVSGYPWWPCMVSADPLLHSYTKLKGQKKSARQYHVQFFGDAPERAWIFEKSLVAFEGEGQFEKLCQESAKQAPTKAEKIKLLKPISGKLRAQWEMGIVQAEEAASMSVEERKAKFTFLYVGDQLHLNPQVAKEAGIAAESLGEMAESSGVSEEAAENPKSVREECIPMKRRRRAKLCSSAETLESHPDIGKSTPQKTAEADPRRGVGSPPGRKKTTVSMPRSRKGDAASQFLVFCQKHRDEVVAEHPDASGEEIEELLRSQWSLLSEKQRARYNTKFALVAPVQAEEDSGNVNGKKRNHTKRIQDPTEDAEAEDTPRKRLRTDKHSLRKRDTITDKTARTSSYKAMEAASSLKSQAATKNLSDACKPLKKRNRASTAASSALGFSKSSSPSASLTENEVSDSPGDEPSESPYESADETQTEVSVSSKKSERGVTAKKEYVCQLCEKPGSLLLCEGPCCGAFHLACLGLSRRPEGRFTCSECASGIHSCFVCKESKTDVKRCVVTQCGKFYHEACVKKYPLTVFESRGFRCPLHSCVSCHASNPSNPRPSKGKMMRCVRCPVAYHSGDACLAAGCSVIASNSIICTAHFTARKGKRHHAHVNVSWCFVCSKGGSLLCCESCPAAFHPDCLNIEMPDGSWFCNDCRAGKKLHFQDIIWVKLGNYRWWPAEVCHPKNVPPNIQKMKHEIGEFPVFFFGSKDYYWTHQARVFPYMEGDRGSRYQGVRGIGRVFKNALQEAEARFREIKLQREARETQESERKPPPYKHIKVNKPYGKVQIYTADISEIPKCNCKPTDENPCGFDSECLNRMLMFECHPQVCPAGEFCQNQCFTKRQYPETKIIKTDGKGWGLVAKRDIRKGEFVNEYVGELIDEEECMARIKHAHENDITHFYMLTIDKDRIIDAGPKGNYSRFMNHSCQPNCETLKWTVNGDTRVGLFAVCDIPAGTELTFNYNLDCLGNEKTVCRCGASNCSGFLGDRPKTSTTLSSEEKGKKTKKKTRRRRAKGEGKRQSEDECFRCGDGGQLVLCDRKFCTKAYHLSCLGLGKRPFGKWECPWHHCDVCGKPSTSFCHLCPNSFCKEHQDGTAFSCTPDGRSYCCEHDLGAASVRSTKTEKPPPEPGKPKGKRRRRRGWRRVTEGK
The experiment is classed as biochemical.

Experiment [10] concerns the target T6, Tyrosyl-DNA phosphodiesterase 2 (Homo sapiens, UniProt O95551).
T6 sequence (O95551 whole entry): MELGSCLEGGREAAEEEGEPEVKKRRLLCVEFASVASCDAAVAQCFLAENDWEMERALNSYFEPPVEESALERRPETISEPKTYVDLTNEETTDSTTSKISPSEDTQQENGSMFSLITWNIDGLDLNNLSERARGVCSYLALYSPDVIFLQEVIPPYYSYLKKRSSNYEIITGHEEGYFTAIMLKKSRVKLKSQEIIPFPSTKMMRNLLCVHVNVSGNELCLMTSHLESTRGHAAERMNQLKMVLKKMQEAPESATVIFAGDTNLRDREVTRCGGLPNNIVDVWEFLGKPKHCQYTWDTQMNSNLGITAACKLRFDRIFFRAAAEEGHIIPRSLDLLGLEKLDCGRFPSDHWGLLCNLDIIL
Put plainly: potency against TDP2 phosphodiesterase activity – biochemical, epi absorbance, IC50, dose response (AID 743297).

The target of experiment [11] is Serine/threonine-protein phosphatase PP1-alpha catalytic subunit (Homo sapiens, UniProt P62136). Put plainly: inhibition of protein phosphatase 1 activity – biochemical, fluorescence, dose response (AID 2394).
Serine/threonine-protein phosphatase PP1-alpha catalytic subunit, sequence (P62136 whole entry): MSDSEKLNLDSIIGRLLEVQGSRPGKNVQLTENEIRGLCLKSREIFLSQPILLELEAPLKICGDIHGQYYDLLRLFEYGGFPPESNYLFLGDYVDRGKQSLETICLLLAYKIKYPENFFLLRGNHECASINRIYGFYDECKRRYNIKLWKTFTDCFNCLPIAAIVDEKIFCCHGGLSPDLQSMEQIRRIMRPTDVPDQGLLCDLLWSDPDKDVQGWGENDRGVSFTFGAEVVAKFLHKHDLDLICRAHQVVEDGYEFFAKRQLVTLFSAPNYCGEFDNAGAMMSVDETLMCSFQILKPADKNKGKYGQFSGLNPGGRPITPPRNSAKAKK

Molecules are shown by their SMILES. Activity calls are given as the source filed them.

Cytochrome P450 3A4, sequence (P08684 whole entry): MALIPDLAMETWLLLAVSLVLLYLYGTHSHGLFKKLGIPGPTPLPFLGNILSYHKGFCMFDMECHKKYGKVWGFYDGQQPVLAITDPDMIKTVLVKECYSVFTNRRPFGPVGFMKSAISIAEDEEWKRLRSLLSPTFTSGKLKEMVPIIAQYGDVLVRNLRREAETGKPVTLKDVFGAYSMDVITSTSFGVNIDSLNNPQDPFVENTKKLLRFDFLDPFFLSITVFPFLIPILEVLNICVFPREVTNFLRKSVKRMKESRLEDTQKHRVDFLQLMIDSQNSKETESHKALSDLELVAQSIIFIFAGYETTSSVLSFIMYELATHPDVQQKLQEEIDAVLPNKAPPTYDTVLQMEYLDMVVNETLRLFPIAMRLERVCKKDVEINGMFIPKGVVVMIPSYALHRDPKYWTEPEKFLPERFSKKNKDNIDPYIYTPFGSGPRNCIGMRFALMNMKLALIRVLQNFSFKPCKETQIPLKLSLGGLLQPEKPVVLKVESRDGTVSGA

Usually IC50 stands for the concentration needed to halve the response being measured. For `O=C(O)Cc1ccc(NC(=O)Nc2cccc(Cl)c2)cc1`, the IC50 is 1.7 µM (active) in experiment [1], > 59.6 µM (not active) in experiment [2] and > 73.5 µM (not active) in experiment [3].
For orientation: AC50 means the concentration giving half of the maximal activity seen. Regarding `Cc1ccc(-c2c(C)sc(NC(=O)C3C4CCC(O4)C3C(=O)O)c2C(=O)OC(C)C)cc1` (centres undefined), the concentration at half-maximal activity (AC50) in experiment [4] was 14.1 µM (inconclusive); in experiment [5] it was 28.2 µM (inconclusive). In addition, the IC50 in experiment [1] is 7.67 µM (active); in [2], > 59.6 µM (not active); in experiment [3], > 73.5 µM (not active).
On to `CC(=O)C(C(C)=O)C1(O)C(=O)c2ccccc2C1=O`, for which the IC50 was > 73.5 µM (inactive) in experiment [6]; 9.72 µM (active) in [7]; > 22.3 µM (not active) in experiment [8]; 9.1 µM (active) in experiment [10]; > 67 µM (not active) in [11]. The AC50 in experiment [9] is 5.35 µM (active).
